# According to patent US6335339B1, “Triazine antiviral compounds” (Scriptgen Pharmaceuticals, Inc., priority 1998, dated 2002):
# Experiments:
# [1] = tested on: HIV derived RRE RNA; experiment: heterologous hybridization inhibition assay with RRE RNA; assay type: binding; settings: radiolabeled RRE RNA, rRNA competitor
# Text: Specificity is further tested in a third assay in which the radiolabeled RNA is the HIV derived RRE RNA and the biotinylated oligonucleotide is complementary to RRE. Compounds with high specific activity for εRNA are not expected to be inhibitory in the RRE RNA based assay. The specificity of the ligand for εRNA is expressed as the ratio between the IC50 value obtained with the specific target RNA and the IC50 value obtained with a heterologous target (RRE RNA), both in the presence of competitor RNA.
# Biotinylated oligonucleotides 262.104 A (5′-biotin-TTAGGCACAGCTTGGAGGCTTGAACAGTG-3′) and 208.92 A (5′-biotin-CGTCATTGACGCTGCGCCCA-3′) were synthetically prepared (Oligos Etc., Willsonville, Oreg.). These oligonucleotides are complementary to regions of the εRNA and RRE RNA targets, respectively.
# Compounds that inhibited the primary screening assay described above were individually titrated in the same assay at concentrations between 0.1 μM and 200 μM in the absence and presence of 60-fold excess rRNA as a non-specific competitor. A third titration was performed in a heterologous assay using radiolabeled RRE RNA as the target and the complementary biotinylated oligonucleotide 208.92 A. From these three assays, the IC50 values and specificity for each compound was calculated.
# IC50 values using rRNA competitor (from Example 1) and radiolabeled RRE RNA are shown in Table 1 for the following ligands. […] Specificity is calculated as the ratio of RRE+rRNA IC50/εRNA+rRNA IC50.
# [2] = tested on: 2.2.15 cells; experiment: neutral red dye uptake cytotoxicity; assay type: cell-based; settings: 9 days treatment, read-out: 50% Cell Death CC50
# Protocol: Further, the antiviral effect of any compound must be measured against its toxicity. Cytotoxicity is measured by the neutral red uptake method using the same cells used for antiviral activity.
# 2b. Compounds were prepared for toxicity treatment as follows: For each compound, a total of 4 concentrations were examined. This required 9 sets of 4 sterile, 1.1 ml minitubes (36 tubes per compound). Into the first tube of each set, sufficient compound was aliquoted to make up 465 μl of the highest test concentration. The other tubes were left empty. The tubes were covered with the rack lids, and stored at −20° C. or at an appropriate temperature. Tubes for the last day of treatment for toxicity testing contain the same amount of compound as used the previous days (not 3xas for the antiviral assays).
# 3b. The cytotoxicity of test compounds was analyzed in a 3.3-fold dilution series as follows. […] (155 μl×3) of RP2 were added to the first tube (containing the aliquot of compound) and 310 μL (155 μl×2) RP2 to each of the 3 remaining tubes. 150 μl of test compound-containing medium were serially transferred from the first tube to the other 3 tubes.
# 5. A single plate was used for the toxicity treatments for each test compound (up to 7 compounds per plates since the top row were reserved for untreated cells on every toxicity plate). To initiate the treatments, the culture medium was removed, and 100 μl of each dilution of every compound were added to each of 3 wells using a configuration similar to that shown above for the antiviral treatments. The untreated cells received 100 μl RP2 per well. Treatment was repeated daily for 9 days.
# The antiviral effect of any compound was evaluated relative to its toxicity. Cells were seeded and treated following the guidelines above, after which a neutral red dye uptake assay was performed to assess toxicity as described below. Other assays of cytotoxicity (e.g., MTT) can be substituted for the procedure described below. Note that this procedure assesses toxicity under culture and treatment conditions which are identical to those used for the antiviral analyses, thereby permitting a determination as to whether the reduction in virus production due to a specific antiviral effect or due to a cytotoxic effect on the host cell. Since the cultures, by necessity, are at confluence, the cytotoxic effects of the test compounds will probably be reduced relative to the cytotoxic effects that would be expected for actively dividing cells.
# 1. Cultures were treated with test compounds on the designated toxicity plates as described above.
# 2. The culture medium was carefully removed 24 hours following the 9th day of treatment. The monolayer was fully removed in the top left three wells (row A, col. 1-3). These wells were used as “blanks” for the plate reader.
# 3. 100 μl DPBS (containing 0.01% neutral red dye) were added to each well, including the empty wells, and Incubated in the tissue culture incubator for 30 minutes.
# 4. The dye was removed carefully and gently, using a multichannel pipetman since the monolayers can become fragile after incubation with neutral red dye. 200 μl DPBS were added to all the wells taking care not to displace the monolayers. The DPBS was removed and 100 μl 50% EtOH/1% glacial acetic acid (in H2O) were added to each well. The plates were mixed for 15 minutes on an orbital platform shaker (120-150 RPM) to allow for full extraction of the dye from the cells.
# 5. Optical absorbance at 510 nm was read in an ELISA type plate reader, using the 3 empty wells to set the background. An average absorbance value was calculated for the 9 untreated cultures on a plate, and the absorbance of dye for the treated cultures on the same plate was expressed as a percentage of that value. This procedure was repeated for each individual plate. […]
smiles,measurement,setting,value
CCCCN(CCCC)c1nc(NN=Cc2ccc([N+](=O)[O-])cc2)nc(Nc2ccc([N+](=O)[O-])cc2)n1 [Compound 5],RRE + rRNA IC50 (μM),[1],inactive
same,CC50,[2],307 µM
Cc1[nH]c2ccccc2c1C=NNc1nc(Nc2ccccc2)nc(Nc2ccc([N+](=O)[O-])cc2)n1 [Compound 6],RRE + rRNA IC50 (μM),[1],inactive
same,CC50,[2],29 µM
Cc1ccc(Nc2nc(NN=Cc3ccccc3)nc(Nc3ccccc3)n2)c(C)c1 [Compound 7],RRE + rRNA IC50 (μM),[1],Inactive
same,CC50,[2],29 µM
CCCCN(CCCC)c1nc(N/N=C/c2cc(I)cc(I)c2O)nc(Nc2ccc([N+](=O)[O-])cc2)n1 [Compound 8],RRE + rRNA IC50 (μM),[1],inactive
same,CC50,[2],196 µM
Cc1ccc(Nc2nc(NN=Cc3ccc(O)cc3O)nc(Nc3ccc([N+](=O)[O-])cc3)n2)cc1C [Compound 9],RRE + rRNA IC50 (μM),[1],inactive
same,CC50,[2],175 µM
Cc1ccccc1Nc1nc(NN=Cc2ccc(I)cc2)nc(Nc2ccc([N+](=O)[O-])cc2)n1 [Compound 10],RRE + rRNA IC50 (μM),[1],inactive
same,CC50,[2],> 300 µM
CCCCN(CCCC)c1nc(NN=Cc2ccc3c(c2)OCO3)nc(Nc2ccc([N+](=O)[O-])cc2)n1 [Compound 11],RRE + rRNA IC50 (μM),[1],inactive
same,CC50,[2],27 µM
Cc1ccc(Nc2nc(NN=Cc3ccccc3O)nc(Nc3ccc([N+](=O)[O-])cc3)n2)cc1C [Compound 12],RRE + rRNA IC50 (μM),[1],inactive
same,CC50,[2],77 µM
CCN(CC)c1nc(NN=Cc2ccc([N+](=O)[O-])cc2)nc(Nc2ccccc2)n1 [Compound 13],RRE + rRNA IC50 (μM),[1],inactive
same,CC50,[2],> 300 µM
COc1c(Br)cc(Br)cc1C=NNc1nc(Nc2ccccc2)nc(N2CCCCC2)n1 [Compound 14],RRE + rRNA IC50 (μM),[1],inactive
same,CC50,[2],> 100 µM
Cc1ccc(C=NNc2nc(Nc3ccc([N+](=O)[O-])cc3)nc(Nc3ccccc3C)n2)cc1 [Compound 15],RRE + rRNA IC50 (μM),[1],inactive
same,CC50,[2],0.6 µM
CCCCN(CCCC)c1nc(NN=Cc2ccc(Cl)cc2)nc(Nc2ccc([N+](=O)[O-])cc2)n1 [Compound 16],RRE + rRNA IC50 (μM),[1],inactive
same,CC50,[2],304 µM
CC(C=NNc1nc(Nc2ccc([N+](=O)[O-])cc2)nc(Nc2ccc(C)c(C)c2)n1)=Cc1ccccc1 [Compound 19],RRE + rRNA IC50 (μM),[1],inactive
same,CC50,[2],> 300 µM
COc1ccc(Nc2nc(NN=Cc3ccc(OC)cc3OC)nc(Nc3ccccc3)n2)cc1 [Compound 20],RRE + rRNA IC50 (μM),[1],inactive
same,CC50,[2],7.1 µM
FC(F)(F)c1cccc(Nc2nc(Nc3ccccc3)nc(N3CCOCC3)n2)c1 [Compound 21],RRE + rRNA IC50 (μM),[1],inactive
same,CC50,[2],5.6 µM
COc1ccc(Nc2nc(NN=Cc3ccc(Cl)cc3)nc(Nc3ccccc3)n2)cc1 [Compound 22],RRE + rRNA IC50 (μM),[1],inactive
same,CC50,[2],47 µM
CCCCN(CCCC)c1nc(NN=Cc2ccc(OCC)c(O)c2)nc(Nc2ccc([N+](=O)[O-])cc2)n1 [Compound 23],RRE + rRNA IC50 (μM),[1],inactive
same,CC50,[2],145 µM
O=[N+]([O-])c1ccc(Nc2nc(NCc3ccccc3)nc(NN=Cc3ccccc3)n2)cc1 [Compound 24],RRE + rRNA IC50 (μM),[1],inactive
same,CC50,[2],75 µM
Cc1ccc(Nc2nc(NN=Cc3ccccc3)nc(Nc3ccccc3)n2)cc1 [Compound 25],RRE + rRNA IC50 (μM),[1],inactive
same,CC50,[2],105 µM
CCN(CC)CCNc1ccc2c3c(cccc13)C(=O)N(Nc1nc(NCc3ccccc3)nc(N(CC)CC)n1)C2=O [Compound 27],RRE + rRNA IC50 (μM),[1],inactive
same,CC50,[2],> 300 µM
COc1ccc(Br)cc1/C=N/Nc1nc(Nc2cccc([N+](=O)[O-])c2)nc(N2CCOCC2)n1 [Compound 28],RRE + rRNA IC50 (μM),[1],inactive
same,CC50,[2],33 µM
Cc1ccccc1Nc1nc(NN=Cc2ccc3c(c2)OCO3)nc(Nc2ccc([N+](=O)[O-])cc2)n1 [Compound 29],RRE + rRNA IC50 (μM),[1],inactive
same,CC50,[2],15 µM
"CCN(CC)c1nc(NCc2ccccc2)nc(N/N=C/c2ccccc2O)n1 [Compound 155, 2-hydroxybenzaldehyde N-[4-(benzylamino)-6-(diethylamino)-1,3,5-triazin-2-yl]hydrazone]",RRE + rRNA IC50 (μM),[1],inactive
